Literature values, collected in patent US20070021605A1, “PROCESS AND COMPOSITION FOR MAKING OLANZAPINE FORM I” (priority 2005, published 2007).

Details: water, pH 6.8; free base

In the case of Cc1cc2c(s1)Nc1ccccc1N=C2N1CCN(C)CC1 [Olanzapine], the solubility is given as “about 0.02 mg/ml”.
